Experiment: Evaluation of stability in liver microsome
Details: mouse liver microsome 0.25 mg/mL, 1 μM test compound, 37° C. for 30 minutes

Compound	Remaining (%)
COCc1ccc(NC(=O)c2c(OCC3CCCC3)n(C3(C)CC3)c3ncnc(N)c23)cc1 [Example 140, 4-amino-6-(cyclopentylmethoxy)-N-(4-(methoxymethyl)phenyl)-7-(1-methylcyclopropyl)-7H-pyrrolo[2,3-d]pyrimidine-5-carboxamide]	52
COCc1ccc(NC(=O)c2c(OCC3CCOCC3)n(C3(C)CC3)c3ncnc(N)c23)cc1 [Example 141, 4-amino-N-(4-(methoxymethyl)phenyl)-7-(1-methylcyclopropyl)-6-((tetrahydro-2H-pyran-4-yl)methoxy)-7H-pyrrolo[2,3-d]pyrimidine-5-carboxamide]	68
COCc1ccc(NC(=O)c2c(C#CCC3(O)CCOCC3)n(C3(C)CC3)c3ncnc(N)c23)cc1 [Example 143, 4-amino-6-(3-(4-hydroxytetrahydro-2H-pyran-4-yl)prop-1-yn-1-yl)-N-(4-(methoxymethyl)phenyl)-7-(1-methylcyclopropyl)-7H-pyrrolo[2,3-d]pyrimidine-5-carboxamide]	68
COCc1ccc(NC(=O)c2c(C#Cc3cnn(C(C)C)c3)n(C3(C)CC3)c3ncnc(N)c23)cc1 [Example 144, 4-amino-6-((1-isopropyl-1H-pyrazol-4-yl)ethynyl)-N-(4-(methoxymethyl)phenyl)-7-(1-methylcyclopropyl)-7H-pyrrolo[2,3-d]pyrimidine-5-carboxamide]	79
COCc1ccc(NC(=O)c2c(-c3ccc(O)cc3)n(C3(C)CC3)c3ncnc(N)c23)cc1 [Example 148, 4-amino-6-(4-hydroxyphenyl)-N-(4-(methoxymethyl)phenyl)-7-(1-methylcyclopropyl)-7H-pyrrolo[2,3-d]pyrimidine-5-carboxamide]	61
C=C(C)c1c(C(=O)Nc2ccc(COC)cc2)c2c(N)ncnc2n1C1(C)CC1 [Example 149, 4-amino-N-(4-(methoxymethyl)phenyl)-7-(1-methylcyclopropyl)-6-(prop-1-en-2-yl)-7H-pyrrolo[2,3-d]pyrimidine-5-carboxamide]	62
COCc1ccc(NC(=O)c2c(C#CCC3CCOCC3)n(C3(C)CC3)c3ncnc(N)c23)cc1 [Example 152, 4-amino-N-(4-(methoxymethyl)phenyl)-7-(1-methylcyclopropyl)-6-(3-(tetrahydro-2H-pyran-4-yl)prop-1-yn-1-yl)-7H-pyrrolo[2,3-d]pyrimidine-5-carboxamide]	57
COCc1ccc(NC(=O)c2c(-c3ccccc3)n(C3(C)CC3)c3ncnc(N)c23)cc1 [Example 154, 4-amino-N-(4-(methoxymethyl)phenyl)-7-(1-methylcyclopropyl)-6-phenyl-7H-pyrrolo[2,3-d]pyrimidine-5-carboxamide]	50
COCc1ccc(NC(=O)c2c(C#Cc3ccc(N)nc3)n(C3(C)CC3)c3ncnc(N)c23)cc1 [Example 155, 4-amino-6-((6-aminopyridin-3-yl)ethynyl)-N-(4-(methoxymethyl)phenyl)-7-(1-methylcyclopropyl)-7H-pyrrolo[2,3-d]pyrimidine-5-carboxamide]	64
COCc1ccc(NC(=O)c2c(C#CCC3NC(=O)NC3=O)n(C3(C)CC3)c3ncnc(N)c23)cc1 (centres unmarked) [Example 156, 4-amino-6-(3-(2,5-dioxoimidazolidin-4-yl)prop-1-yn-1-yl)-N-(4-(methoxymethyl)phenyl)-7-(1-methylcyclopropyl)-7H-pyrrolo[2,3-d]pyrimidine-5-carboxamide]	67
COCc1ccc(NC(=O)c2c(C#Cc3ccc4c(c3)NCCO4)n(C3(C)CC3)c3ncnc(N)c23)cc1 [Example 158, 4-amino-6-((3,4-dihydro-2H-benzo[b][1,4]oxazin-6-yl)ethynyl)-N-(4-(methoxymethyl)phenyl)-7-(1-methylcyclopropyl)-7H-pyrrolo[2,3-d]pyrimidine-5-carboxamide]	85
COCc1ccc(NC(=O)c2c(C#Cc3ccc[nH]3)n(C3(C)CC3)c3ncnc(N)c23)cc1 [Example 161, 6-((1H-pyrrol-2-yl)ethynyl)-4-amino-N-(4-(methoxymethyl)phenyl)-7-(1-methylcyclopropyl)-7H-pyrrolo[2,3-d]pyrimidine-5-carboxamide]	68
COCc1ccc(NC(=O)c2c(C#Cc3ccccc3)n(C3(C)CC3)c3ncnc(N)c23)cc1 [Example 162, 4-amino-N-(4-(methoxymethyl)phenyl)-7-(1-methylcyclopropyl)-6-(phenylethynyl)-7H-pyrrolo[2,3-d]pyrimidine-5-carboxamide]	76
COCc1ccc(NC(=O)c2c(-c3ccc(N4CCN(C)CC4)cc3)n(C3(C)CC3)c3ncnc(N)c23)cc1 [Example 171, 4-amino-N-(4-(methoxymethyl)phenyl)-7-(1-methylcyclopropyl)-6-(4-(4-methylpiperazin-1-yl)phenyl)-7H-pyrrolo[2,3-d]pyrimidine-5-carboxamide]	77
COCc1ccc(NC(=O)c2c(C#Cc3ccccn3)n(C3(C)CC3)c3ncnc(N)c23)cc1 [Example 172, 4-amino-N-[4-(methoxymethyl)phenyl]-7-(1-methylcyclopropyl)-6-(pyridin-2-ylethynyl)-7H-pyrrolo[2,3-d]pyrimidine-5-carboxamide]	61
COCc1ccc(NC(=O)c2c(C#CC(C)(C)O)n(C3(C)CC3)c3ncnc(N)c23)cc1 [Example 174, 4-amino-6-(3-hydroxy-3-methylbut-1-yn-1-yl)-N-(4-(methoxymethyl)phenyl)-7-(1-methylcyclopropyl)-7H-pyrrolo[2,3-d]pyrimidine-5-carboxamide]	72
COCc1ccc(NC(=O)c2c(C#Cc3cncc(F)c3)n(C3(C)CC3)c3ncnc(N)c23)cc1 [Example 175, 4-amino-6-((5-fluoropyridin-3-yl)ethynyl)-N-(4-(methoxymethyl)phenyl)-7-(1-methylcyclopropyl)-7H-pyrrolo[2,3-d]pyrimidine-5-carboxamide]	66
COCc1ccc(NC(=O)c2c(C#CC3(O)CCOC3)n(C3(C)CC3)c3ncnc(N)c23)cc1 (centres unmarked) [Example 177, 4-amino-6-((3-hydroxytetrahydrofuran-3-yl)ethynyl)-N-(4-(methoxymethyl)phenyl)-7-(1-methylcyclopropyl)-7H-pyrrolo[2,3-d]pyrimidine-5-carboxamide]	72
COCc1ccc(NC(=O)c2c(-c3ccc(CO)nc3)n(C3(C)CC3)c3ncnc(N)c23)cc1 [Example 179, 4-amino-6-(6-(hydroxymethyl)pyridin-3-yl)-N-(4-(methoxymethyl)phenyl)-7-(1-methylcyclopropyl)-7H-pyrrolo[2,3-d]pyrimidine-5-carboxamide]	85

The next lines start with the values.

Remaining (%)	Compound
72	COCc1ccc(NC(=O)c2c(-c3ccc(CO)cc3)n(C3(C)CC3)c3ncnc(N)c23)cc1 [Example 145, 4-amino-6-(4-(hydroxymethyl)phenyl)-N-(4-(methoxymethyl)phenyl)-7-(1-methylcyclopropyl)-7H-pyrrolo[2,3-d]pyrimidine-5-carboxamide]
68	COCc1ccc(NC(=O)c2c(-c3ccc(NC(C)=O)nc3)n(C3(C)CC3)c3ncnc(N)c23)cc1 [Example 147, 6-(6-acetamidopyridin-3-yl)-4-amino-N-(4-(methoxymethyl)phenyl)-7-(1-methylcyclopropyl)-7H-pyrrolo[2,3-d]pyrimidine-5-carboxamide]
78	COCc1ccc(NC(=O)c2c(-c3cnn(C)c3)n(C3(C)CC3)c3ncnc(N)c23)cc1 [Example 150, 4-amino-N-(4-(methoxymethyl)phenyl)-6-(1-methyl-1H-pyrazol-4-yl)-7-(1-methylcyclopropyl)-7H-pyrrolo[2,3-d]pyrimidine-5-carboxamide]
59	CCC(O)CC#Cc1c(C(=O)Nc2ccc(COC)cc2)c2c(N)ncnc2n1C1(C)CC1 (centres unmarked) [Example 157, 4-amino-6-(4-hydroxyhex-1-yn-1-yl)-N-(4-(methoxymethyl)phenyl)-7-(1-methylcyclopropyl)-7H-pyrrolo[2,3-d]pyrimidine-5-carboxamide]
78	COCc1ccc(NC(=O)c2c(C#Cc3cnc4ccoc4c3)n(C3(C)CC3)c3ncnc(N)c23)cc1 [Example 159, 4-amino-6-(furo[3,2-b]pyridin-6-ylethynyl)-N-(4-(methoxymethyl)phenyl)-7-(1-methylcyclopropyl)-7H-pyrrolo[2,3-d]pyrimidine-5-carboxamide]
90	COCc1ccc(NC(=O)c2c(C#Cc3ccc(OC)cc3)n(C3(C)CC3)c3ncnc(N)c23)cc1 [Example 165, 4-amino-N-(4-(methoxymethyl)phenyl)-6-((4-methoxypheny)ethynyl)-7-(1-methylcyclopropyl)-7H-pyrrolo[2,3-d]pyrimidine-5-carboxamide]
80	COCc1ccc(NC(=O)c2c(-c3cn[nH]c3)n(C3(C)CC3)c3ncnc(N)c23)cc1 [Example 167, 4-amino-N-(4-(methoxymethyl)phenyl)-7-(1-methylcyclopropyl)-6-(1H-pyrazol-4-yl)-7H-pyrrolo[2,3-d]pyrimidine-5-carboxamide]
70	COCc1ccc(NC(=O)c2c(C#Cc3ccsc3)n(C3(C)CC3)c3ncnc(N)c23)cc1 [Example 176, 4-amino-N-(4-(methoxymethyl)phenyl)-7-(1-methylcyclopropyl)-6-(thiophen-3-ylethynyl)-7H-pyrrolo[2,3-d]pyrimidine-5-carboxamide]
88	COCc1ccc(NC(=O)c2c(C#CCN3CC[S+]([O-])CC3)n(C3(C)CC3)c3ncnc(N)c23)cc1 [Example 178, 4-amino-N-(4-(methoxymethyl)phenyl)-7-(1-methylcyclopropyl)-6-(3-(1-oxidethiomorpholino)prop-1-yn-1-yl)-7H-pyrrolo[2,3-d]pyrimidine-5-carboxamide]
62	COCc1ccc(NC(=O)c2c(C#Cc3cn(C)nc3C)n(C3(C)CC3)c3ncnc(N)c23)cc1 [Example 181, 4-amino-6-((1,3-dimethyl-1H-pyrazol-4-yl)ethynyl)-N-(4-(methoxymethyl)phenyl)-7-(1-methylcyclopropyl)-7H-pyrrolo[2,3-d]pyrimidine-5-carboxamide]

Reference: patent US10155768B2, “Fused pyrimidine compound or salt thereof” (TAIHO PHARMACEUTICAL CO., LTD., priority 2016, dated 2018)
